Results as given in ChEMBL document CHEMBL1144091, “Isolation of two highly methylated polyketide derivatives from a yew-associated penicillium species” (J Nat Prod, 1999).
Calls of active or inactive are those of the source. The calls are words filed in the database; no cut-off is given here.

Legend:
[1] = tested on: Sclerotinia sclerotiorum; assay: Antifungal activity against Sclerotinia sclerotiorum at 0.00011 uM/disk after 96 hrs; assay type: functional; settings: read-out: IZ
[2] = tested on: Candida albicans; assay: Antifungal activity against Candida albicans at 500 ug/disk; assay type: functional, organism-based
[3] = tested on: Fusarium oxysporum; assay: Antifungal activity against Fusarium oxysporum at 500 ug/disk; assay type: functional, organism-based
[4] = tested on: Geotrichum candidum; assay: Antifungal activity against Geotrichum candidum at 500 ug/disk; assay type: functional, organism-based
[5] = tested on: Helminthosporium; assay: Antifungal activity against Helminthosporium sativum at 500 ug/disk; assay type: functional, organism-based
[6] = tested on: Aspergillus niger; assay: Antifungal activity against Aspergillus niger at 500 ug/disk; assay type: functional, organism-based
[7] = tested on: Aspergillus flavus; assay: Antifungal activity against Aspergillus flavus at 500 ug/disk; assay type: functional, organism-based
[8] = tested on: Artemia; assay: Toxicity against brine shrimp at 500 ug/mL; assay type: organism-based; settings: in vivo
[9] = tested on: Sclerotinia sclerotiorum; assay: Antifungal activity against Sclerotinia sclerotiorum at 0.00034 uM/disk after 96 hrs; assay type: functional; settings: read-out: IZ

CC1=C[C@H]2C[C@H](C)[C@@H](O)[C@H](C)[C@H]2[C@H](/C=C(C)/C=C(C)/C=C/C(=O)O)/C1=C\C(=O)CO
zone of inhibition at 0.00011 µM [1]: 17 mm
Activity [2]: inactive
Activity [3]: inactive
Activity [4]: inactive
Activity [5]: inactive
Activity [6]: inactive
Activity [7]: inactive
Activity [8]: Non-toxic

CC1=C[C@H]2C[C@H](C)[C@@H](O)[C@H](C)[C@H]2[C@H](/C=C(C)/C=C(C)\C=C\C(=O)O)/C1=C\C(=O)CO
Activity [2]: inactive
zone of inhibition at 0.00034 µM [9]: 16 mm
Activity [3]: inactive
Activity [4]: inactive
Activity [5]: inactive
Activity [6]: inactive
Activity [7]: inactive
Activity [8]: Non-toxic
